Laboratory results reported in PMC5154303, “Flavonol and imidazole derivatives block HPV16 E6 activities and reactivate apoptotic pathways in HPV^+ cells” (Cell Death & Disease, 2016).

Key:
Type in all cases: cell-based, human
SiHa cells = experiment: Cell toxicity in SiHa cells without TRAIL (MTT); details: overnight
Procedure: Figure 3 (a) HPV^+ SiHa cells are resistant to TRAIL-induced apoptosis as compared with the human osteosarcoma cell line U2OS. Cells (2 × 10^4 cells per well) were seeded into a 96-well plate, allowed to incubate overnight, and then treated with the indicated concentration of TRAIL in the presence of cycloheximide (5 μg/ml). The viability of cells was measured after overnight incubation using the MTT assay; the viability of cells untreated with TRAIL was set at 100% for each group. (b) The indicated concentrations of three small molecules were added to SiHa cells, and an MTT assay was preformed after overnight incubation. The viability of cells untreated with small molecules was set as 100%. (c) The indicated concentrations of myricetin or spinacine were added 4 h prior to TRAIL (100 ng/ml) in the presence of cycloheximide (5 μg/ml) and incubated at 37 °C overnight. […] Cell viability was measured after overnight incubation using the MTT assay, and the viability of cells untreated with either myricetin or spinacine was set at 100%. […]
(§1) The extracellular domain of human TRAIL was cloned into a pTriEx expression plasmid containing N-terminal Hisx6 tag. […] All experiments were repeated at least three times (three biological replicates, carried out on different days), with each experimental group measured in triplicate within each of these individual experiments. […]

caspase 3/7 = experiment: Caspase 3/7 activity assay in SiHa cells; details: 100 μM myricetin or 50 μM spinacine 4 h, then TRAIL 100 ng/ml + cycloheximide, 0–6 h, versus controls
Procedure: Figure 4 Myricetin and spinacine (5) increase caspase 3/7 activity in SiHa cells following treatment with TRAIL and chemotherapy drugs. SiHa cells (2 × 10^4 cells per well) were seeded into a 96-well plate and allowed to incubate overnight and then pretreated with 100 μM of myricetin or 50 μM of spinacine for 4 h. (a) TRAIL (100 ng/ml), along with cycloheximide (5 μg/ml), (b) cisplatin (50 μM), or (c) doxorubicin (2 μM) were added respectively. Caspase 3/7 activity was measured after 0, 1.5, 3, and 6 h using the CellTiter-Glo assay. Activity at 0 h of treatment was set at 100% for each group. Experiments were performed in triplicate, and error bars indicate the S.D.
Cells were plated into 96-well plates at a density of 2 × 10^4 cells per well and incubated overnight. Small molecules were then added and incubated at 37 °C for 4 h. TRAIL (100 ng/ml), cisplatin (50 μM), and doxorubicin (2 μM) were then added. […] Caspase 3/7 activity was measured using the flourogenic substrate CellTitier-Glo for caspase 3/7 activity (Promega, Fitchburg, WI, USA) following the manufacturer's instructions. […] After a 10-min incubation, the released fluorophore was measured using a plate-reading fluorimeter (Flx800, Bio-Tek Instrument Co., Winooski, VT, USA). […] The resulting difference was expressed as a percentage of the caspase activity of the untreated cells.

UPCI-SCC90-UP-Clone 35 = experiment: TRAIL-induced cell death in HPV+ HNSCC line UPCI-SCC90-UP-Clone 35 (MTT); details: HPV+ #90, 40 μM compound 4 h, 50 ng/ml TRAIL + cycloheximide
Procedure: (§2) Figure 7 Myricetin and spinacine (5) can re-sensitize HPV^+, but not HPV^−, head and neck cancer cell lines to treatment with TRAIL. (a) Both HPV^− and HPV^+ HN cancer cell lines display resistance to TRAIL treatment. (b) HPV^− (UMSCC 29 and SCC 84) and (c) HPV^+ (UMSCC 47, UPCI-SCC90-UP-Clone 35, and UM-SCC47-TC-Clone 3) head and neck cancer cell lines (2 × 10^4 cells per well) were seeded into 96-well plates and allowed to incubate overnight, and then cells were pretreated with myricetin (0–200 μM) or spinacine (0–100 μM) for 4 h. […] Cell viability was measured by the MTT assay, and the viability of cells untreated with small molecules was set at 100%. Experiments were performed in triplicate, and error bars indicate the S.D.
as §1, with “tag. His-TRAIL was expressed in the E. coli BL-21 pLys strain and purified as previously described. Doxorubicin and cisplatin were purchased from Sigma. His-TRAIL, doxorubicin, and cisplatin were diluted in PBS to the desired concentration before using.” for “tag.”

UMSCC29 = experiment: TRAIL-induced cell death in HPV− HNSCC line UMSCC29 (MTT); details: HPV− #29, myricetin 0–200 μM or spinacine 0–100 μM, 50 ng/ml TRAIL
Procedure: as §2
as §1, with “tag. His-TRAIL was expressed in the E. coli BL-21 pLys strain and purified as previously described. Doxorubicin and cisplatin were purchased from Sigma. His-TRAIL, doxorubicin, and cisplatin were diluted in PBS to the desired concentration before using.” for “tag.”

UMSCC 29 = experiment: Sensitization to doxorubicin in HPV− HNSCC line UMSCC 29 (MTT); details: HPV− #29, compound 0–12.5 μM, 2 μM doxorubicin
Procedure: (§3) Figure 8 Myricetin and spinacine (5) can re-sensitize HPV^+, but not HPV^−, HNSCC cell lines to treatment with doxorubicin. Two HPV^− (UMMSCC 29 and SCC 84) and three HPV^+ (UMSCC 47, UPCI-SCC90-UP-Clone 35, and UM-SCC47-TC Clone 3) head and neck cancer cell lines (2 × 10^4 cells per well) were seeded into 96-well plates and allowed to incubate overnight, and then cells were pretreated with myricetin or spinacine (0–12.5 μM) for 4 h. In all, 2 μM of doxorubicin was added, and the cells were allowed to incubate overnight. Cell viability was measured by MTT assay, and the viability of cells untreated with small molecules was set at 100%. Experiments were performed in triplicate, and error bars indicate the S.D.
as §1, with “tag. His-TRAIL was expressed in the E. coli BL-21 pLys strain and purified as previously described. Doxorubicin and cisplatin were purchased from Sigma. His-TRAIL, doxorubicin, and cisplatin were diluted in PBS to the desired concentration before using.” for “tag.”

SCC 84 = experiment: Sensitization to doxorubicin in HPV− HNSCC line SCC 84 (MTT); details: HPV− #84, compound 0–12.5 μM, 2 μM doxorubicin
Procedure: as §3
as §1, with “tag. His-TRAIL was expressed in the E. coli BL-21 pLys strain and purified as previously described. Doxorubicin and cisplatin were purchased from Sigma. His-TRAIL, doxorubicin, and cisplatin were diluted in PBS to the desired concentration before using.” for “tag.”

Row | Compound | toxicity to SiHa cells in the absence of TRAIL (SiHa cells) | caspase 3/7 activity in combination with TRAIL (caspase 3/7) | enhancement of TRAIL-induced cell death (UPCI-SCC90-UP-Clone 35) | response to TRAIL in presence and absence of compound (UMSCC29) | response to doxorubicin in presence and absence of compound (UMSCC 29) | response to doxorubicin in presence and absence of compound (SCC 84)
1 | O=C(O)C1Cc2[nH]cnc2CN1 (stereo not drawn) [Spinacine (5), 4,5,6,7-tetrahydro-1H-imidazo[4,5–c]pyridine-6-carboxylic acid] | low toxicity | increased | up to 50% | resistant | resistant | resistant
2 | O=c1c(O)c(-c2cc(O)c(O)c(O)c2)oc2cc(O)cc(O)c12 [Myricetin, myricetin, reference compound] | low toxicity | increased | 30% | resistant | resistant | resistant
